US11771765B2, “Light augmented treatment method” (The Procter & Gamble Company, priority 2019, dated 2023)

Legend:
protoporphyrin IX (PPIX) [1] = experiment: Protoporphyrin IX levels in treated M. furfur cells by HPLC; type: cell-based
M. furfur CBS 7982 = experiment: Fractional Inhibitor Concentration (FIC): antimicrobial plus 409 nm light on M. furfur growth; type: cell-based, Malassezia furfur; details: for shortest light exposure time when applied in combination to give growth inhibition: 409 nm light, with the lowest inhibiting concentration; for growth, OD 600 nm: 16 h growth; for lowest concentration to give growth inhibition: antimicrobial alone, no light; for lowest concentration to give growth inhibition / lowest concentration when applied in combination with light to give growth inhibition: inhibition = OD <=50% of untreated control; for FIC value / Combinatorial Effect: antimicrobial plus 409 nm light; for Combinatorial Effect: classified by FIC value; for lowest concentration when applied in combination with light to give growth inhibition: with 409 nm light
Protocol: Fractional Inhibitor Concentration (FIC) is a conventional methodology for evaluating the interaction of two antimicrobial chemicals. […] In an embodiment of the present invention, FIC is used to determine combinatorial effects of one chemical and exposure to light on Malassezia growth and/or viability in an in vitro system.
• 1. M. furfur CBS 7982 cells are exposed to a varying concentrations of an antimicrobial active (e.g. ZPT, Piroctone Olamine) for a specified amount of time (e.g. 2 min to 3 hours). • 2. After exposure, the antimicrobial is washed away by centrifugation of the cells and a series of washes • 3. Cells are then exposed to light at a wavelength of 409 nm for varying lengths of time • 4. Cells are then allowed to grow up overnight (e.g. 17 h) to determine the impact of the treatment on viability and growth of the organism by measuring OD600 II. Data Analysis: • 1. Inhibition of growth is determined to be where the OD value obtained is <=50% of the untreated control • 2. The lowest concentration value of the antimicrobial agent which inhibits growth is determined • 3. Likewise, the shortest light exposure time is determined that gives growth inhibition • 4. Finally, the combination of the lowest concentration of the antimicrobial and the shortest light exposure time that provides growth inhibition is determined • 5. The FIC value is determined using the calculation below:
[formula] • 6. The combinatorial effect of the antimicrobial and light is classified according to the chart below: […]
(§1) M. furfur is incubated for one hour with varying concentrations of Piroctone Olamine. Cell pellets are collected by centrifugation so that most of the anti-fungal material has been removed. The cell pellet is suspended in PBS and 500 uL samples are distributed to four 12 well plates and treated with light (409 nm) for 1, 10 or 60 minutes or stored in the dark. Samples are then diluted into mDixon, and incubated for 16 h with subsequent growth measured by OD 600 nm.
as §1, with “Hinokitiol.” for “Piroctone Olamine.”, “27” for “16”, “nm. […]” for “nm.”

protoporphyrin IX (PPIX) [2] = experiment: Protoporphyrin IX levels in treated M. furfur cells by HPLC; type: cell-based; details: increasing concentrations
Source text: PPIX absorb light in the 400 nm range, and when light is absorbed, PPIX transitions to an excited triplet state that can react with triplet oxygen to produce singlet oxygen or the excited porphyrin can generate ROS through single electron processes. These reactive species result in a loss of cell viability.
M. furfur cells are exposed to other antifungals that are not considered chelators (i.e. selenium sulfide (SeSx), Sulfur, Climbazole, and Terbinafine). After treatment, cells are then exposed to light, or not exposed to light. Both OD are measured to measure growth and PPIX levels are measured.

Cc1cc(CC(C)CC(C)(C)C)n(O)c(=O)c1.NCCO (centres unmarked) [Piroctone Olamine, 1-Hydroxy-4-methyl-6-(2,4,4-trimethylpentyl)-2-pyridone monoethanolamine salt]
Total PPIX (protoporphyrin IX (PPIX) [1]; Piroctone Olamine 6 ppm): 2.6 ng | Total PPIX (protoporphyrin IX (PPIX) [1]; Piroctone Olamine 8 ppm): 13.9 ng | Total PPIX (protoporphyrin IX (PPIX) [1]; Piroctone Olamine 16 ppm): 20.7 ng | Total PPIX (protoporphyrin IX (PPIX) [1]; Piroctone Olamine 32 ppm): 16.5 ng | shortest light exposure time when applied in combination to give growth inhibition (M. furfur CBS 7982): 1 min | growth, OD 600 nm (M. furfur CBS 7982; Piroctone Olamine 4 ppm 1 h, 409 nm light 0 min): 3.6 | growth, OD 600 nm (M. furfur CBS 7982; Piroctone Olamine 4 ppm 1 h, 409 nm light 1 min): 4.1 | growth, OD 600 nm (M. furfur CBS 7982; Piroctone Olamine 4 ppm 1 h, 409 nm light 10 min): 3.9 | growth, OD 600 nm (M. furfur CBS 7982; Piroctone Olamine 4 ppm 1 h, 409 nm light 60 min): 3.7 | growth, OD 600 nm (M. furfur CBS 7982; Piroctone Olamine 8 ppm 1 h, 409 nm light 0 min): 3.9 | growth, OD 600 nm (M. furfur CBS 7982; Piroctone Olamine 8 ppm 1 h, 409 nm light 1 min): 0.1 | growth, OD 600 nm (M. furfur CBS 7982; Piroctone Olamine 8 ppm 1 h, 409 nm light 10 min): 0.0 | growth, OD 600 nm (M. furfur CBS 7982; Piroctone Olamine 8 ppm 1 h, 409 nm light 60 min): 0.0 | growth, OD 600 nm (M. furfur CBS 7982; Piroctone Olamine 16 ppm 1 h, 409 nm light 0 min): 2.6 | growth, OD 600 nm (M. furfur CBS 7982; Piroctone Olamine 16 ppm 1 h, 409 nm light 1 min): 0.1 | growth, OD 600 nm (M. furfur CBS 7982; Piroctone Olamine 16 ppm 1 h, 409 nm light 10 min): 0.0 | growth, OD 600 nm (M. furfur CBS 7982; Piroctone Olamine 16 ppm 1 h, 409 nm light 60 min): 0.0 | growth, OD 600 nm (M. furfur CBS 7982; Piroctone Olamine 32 ppm 1 h, 409 nm light 0 min): 2.1 | growth, OD 600 nm (M. furfur CBS 7982; Piroctone Olamine 32 ppm 1 h, 409 nm light 1 min): 0.2 | growth, OD 600 nm (M. furfur CBS 7982; Piroctone Olamine 32 ppm 1 h, 409 nm light 10 min): 0.0 | growth, OD 600 nm (M. furfur CBS 7982; Piroctone Olamine 32 ppm 1 h, 409 nm light 60 min): 0.0 | growth, OD 600 nm (M. furfur CBS 7982; Piroctone Olamine 64 ppm 1 h, 409 nm light 0 min): 1.3 | growth, OD 600 nm (M. furfur CBS 7982; Piroctone Olamine 64 ppm 1 h, 409 nm light 1 min): 0.1 | growth, OD 600 nm (M. furfur CBS 7982; Piroctone Olamine 64 ppm 1 h, 409 nm light 10 min): 0.0 | growth, OD 600 nm (M. furfur CBS 7982; Piroctone Olamine 64 ppm 1 h, 409 nm light 60 min): 0.0 | lowest concentration to give growth inhibition (M. furfur CBS 7982): 64 ppm | FIC value (M. furfur CBS 7982): 0.14 | Combinatorial Effect (M. furfur CBS 7982): synergistic | lowest concentration when applied in combination with light to give growth inhibition (M. furfur CBS 7982): 8 ppm | PPIX levels (protoporphyrin IX (PPIX) [2]): increased levels of PPIX

[O-]n1ccccc1=S.[O-]n1ccccc1=S.[Zn+2] [ZPT, zinc salt of 1-hydroxy-2-pyridinethione]
Total PPIX (protoporphyrin IX (PPIX) [1]; ZPT 2.5 ppm): 0.37 ng | Total PPIX (protoporphyrin IX (PPIX) [1]; ZPT 5 ppm): 0.47 ng | Total PPIX (protoporphyrin IX (PPIX) [1]; ZPT 10 ppm): 0.27 ng | shortest light exposure time when applied in combination to give growth inhibition (M. furfur CBS 7982): 2 min | growth, OD 600 nm (M. furfur CBS 7982; ZPT 1.25 ppm 3 h, 409 nm light 0 min): 7.76 | growth, OD 600 nm (M. furfur CBS 7982; ZPT 1.25 ppm 3 h, 409 nm light 2 min): 7.24 | growth, OD 600 nm (M. furfur CBS 7982; ZPT 1.25 ppm 3 h, 409 nm light 10 min): 6.24 | growth, OD 600 nm (M. furfur CBS 7982; ZPT 1.25 ppm 3 h, 409 nm light 60 min): 1.96 | growth, OD 600 nm (M. furfur CBS 7982; ZPT 2.5 ppm 3 h, 409 nm light 0 min): 7.12 | growth, OD 600 nm (M. furfur CBS 7982; ZPT 2.5 ppm 3 h, 409 nm light 2 min): 3.35 | growth, OD 600 nm (M. furfur CBS 7982; ZPT 2.5 ppm 3 h, 409 nm light 10 min): 0.31 | growth, OD 600 nm (M. furfur CBS 7982; ZPT 2.5 ppm 3 h, 409 nm light 60 min): 0.03 | growth, OD 600 nm (M. furfur CBS 7982; ZPT 5 ppm 3 h, 409 nm light 0 min): 6.21 | growth, OD 600 nm (M. furfur CBS 7982; ZPT 5 ppm 3 h, 409 nm light 2 min): 5.30 | growth, OD 600 nm (M. furfur CBS 7982; ZPT 5 ppm 3 h, 409 nm light 10 min): 3.72 | growth, OD 600 nm (M. furfur CBS 7982; ZPT 5 ppm 3 h, 409 nm light 60 min): 0.87 | growth, OD 600 nm (M. furfur CBS 7982; ZPT 10 ppm 3 h, 409 nm light 0 min): 4.85 | growth, OD 600 nm (M. furfur CBS 7982; ZPT 10 ppm 3 h, 409 nm light 2 min): 4.91 | growth, OD 600 nm (M. furfur CBS 7982; ZPT 10 ppm 3 h, 409 nm light 10 min): 4.06 | growth, OD 600 nm (M. furfur CBS 7982; ZPT 10 ppm 3 h, 409 nm light 60 min): 0.83 | growth, OD 600 nm (M. furfur CBS 7982; ZPT 20 ppm 3 h, 409 nm light 0 min): 0.51 | growth, OD 600 nm (M. furfur CBS 7982; ZPT 20 ppm 3 h, 409 nm light 2 min): 0.58 | growth, OD 600 nm (M. furfur CBS 7982; ZPT 20 ppm 3 h, 409 nm light 10 min): 0.64 | growth, OD 600 nm (M. furfur CBS 7982; ZPT 20 ppm 3 h, 409 nm light 60 min): 0.37 | lowest concentration to give growth inhibition (M. furfur CBS 7982): 10 ppm | FIC value (M. furfur CBS 7982): 0.28 | Combinatorial Effect (M. furfur CBS 7982): synergistic | lowest concentration when applied in combination with light to give growth inhibition (M. furfur CBS 7982): 2.5 ppm | PPIX levels (protoporphyrin IX (PPIX) [2]): increased levels of PPIX
